# Test results published in patent US20100048479A1, “ADRENAL GRK2 ACTIVITY AS A THERAPEUTIC TARGET FOR HEART FAILURE” (priority 2006, published 2010).
# Where two headings read alike, the source gives them in different places.
# Legend:
# α2AR [1] = assay: Moxonidine treatment of HF rats, plasma catecholamine levels; type: in vivo, rat; conditions: 7d of moxonidine 1 mg/kg/d intraperitoneally
# Description: In vivo adrenal gene delivery: All animal procedures and experiments were performed in accordance with the guidelines of the Institutional Animal Care and Use Committee of Thomas Jefferson University. For adrenal-specific in vivo gene delivery in HF rats, adenovirus was delivered directly to the adrenal gland using a surgical technique. Rats with chronic heart failure ten weeks after myocardial infarction were directly injected with virus into both of their adrenal glands, immediately after a transversal cut of the median abdomen was made and ventral visceral organs temporarily placed on the side so as to expose the retroperitoneal region. […] HF rats were treated with either AdβARKct or AdGFP as a control. […] For moxonidine treatment of HF rats, systemic administration of 1.0 mg/kg/d of moxonidine (delivered via a daily intraperitoneal injection) was initiated at the time of in vivo adrenal gene delivery and continued for seven days, at which time plasma was taken for determination of circulating catecholamine levels (see below).
# Plasma and in vitro catecholamine secretion measurements: Plasma Epi and NE levels were determined by ELISA, performed on rat and mouse plasma samples with the BI-CAT EIA kit from ALPCO Diagnostics (Windham, N.H.). In vitro Epi and NE secretion in the supernatant of cultured chromaffin cells was measured by use of the same ELISA kit essentially as described previously by Wilson & Kirschner, 3J. Neurosci. 1971-78 (1983). In vitro catecholamine (CA) secretion measurements. Briefly, 48 hrs post-isolation, chromaffin cells were placed in a balanced salts buffer and stimulated with 20 μM nicotine for 30 min, following pre-treatment with 10 μM UK14304 (Sigma-Aldrich) or vehicle for 30 min. At the end of nicotine treatment, the supernatant was collected for determination of its CA content. […] In all experiments, the supernatants used for CA measurements were collected from cultures of equal numbers of cells as determined by cell counting and post-experiment protein determination in harvested cells.
# α2AR [2] = conditions: MOXSE and MOXCON trials; cited from earlier work
# chromaffin cells = tested on: chromaffin cells
# Description: (§1) Plasma and in vitro catecholamine secretion measurements: Plasma Epi and NE levels were determined by ELISA, performed on rat and mouse plasma samples with the BI-CAT EIA kit from ALPCO Diagnostics (Windham, N.H.). In vitro Epi and NE secretion in the supernatant of cultured chromaffin cells was measured by use of the same ELISA kit essentially as described previously by Wilson & Kirschner, 3J. Neurosci. 1971-78 (1983). In vitro catecholamine (CA) secretion measurements. Briefly, 48 hrs post-isolation, chromaffin cells were placed in a balanced salts buffer and stimulated with 20 μM nicotine for 30 min, following pre-treatment with 10 μM UK14304 (Sigma-Aldrich) or vehicle for 30 min. At the end of nicotine treatment, the supernatant was collected for determination of its CA content. Adenoviral-transfected cells were infected 48 hrs post-isolation and cells were subjected to the various treatments 24 hrs after transfection (72 hrs post-isolation). In all experiments, the supernatants used for CA measurements were collected from cultures of equal numbers of cells as determined by cell counting and post-experiment protein determination in harvested cells.
# Following this period, in vitro CA secretion assays were performed using nicotine to activate nicotinic cholinergic receptors (the physiological stimulus for CA secretion from these cells) and the α2AR agonist UK14304 to activate these negative feedback receptors.
# α2AR [3] = conditions: HF animal models and human heart failure patients; cited from earlier work
# [4] = tested on: rat primary chromaffin cells; assay: βarr1 membrane recruitment in rat primary chromaffin cells; type: cell-based; conditions: cells infected with GFP, 10 μM UK14304 for 8 min
# Description: β-arrestin membrane recruitment: βarr1 recruitment to rat primary chromaffin cell membranes or whole adrenal gland-derived plasma membranes was measured by western blotting in membrane preparations, essentially as described previously in Perry et al., 198 Science 834-36 (2002). Cultured chromaffin cells, isolated from rat adrenal glands, were transfected with the indicated recombinant adenoviruses and 24 hrs post-infection they were treated with vehicle or 10 μM UK14304 for 8 min. The cells were then harvested and plasma membranes prepared by hypotonic lysis with 5 mM TrisCl, 5 mM EDTA, pH 7.4, and subsequent ultracentrifugation at 47.000×g. The membranes were resuspended in RIPA buffer, containing Triton 0.5% and protease inhibitors, and then fractions of membrane lysates containing 50 μg of protein were loaded for SDS-PAGE, and subsequently western blotted with an antibody against rat βarr1 and −2 (A1CT40, a generous gift from Dr. R. J. Lefkowitz, Duke Univ. Medical Center, Durham, N.C.). Plasma membrane preparations from whole adrenal glands excised from in vivo infected rats were obtained by the same procedure. Blotting for actin in the same membrane lysates was also performed as loading control. βarr1 membrane recruitment was quantified as the densitometric ratio of βarr1 and actin bands detected in each sample.
# [5] = tested on: chromaffin cells isolated from HF or sham-operated rats; conditions: 10 μM UK14304 pretreatment
# Description: Calibration and assessment of intracellular Ca^2+ transients in chromaffin cells in response to K^+-induced depolarization were performed essentially as described. Brede, 2003; Zhou & Neher, 469 J. Physiol. 245-73 (1993). Changes in intracellular Ca^2+ were monitored fluorimetrically using the Ca^2+-sensitive probe Fura 2 (1 μM). The recording system included a Zeiss, Axiovert S170 inverted microscope fitted with epifluorescence (monochromator TILL Polychrome II, Germany). Cells were alternatively illuminated at 340 nm and 380 nm at a frequency of 140 Hz. Emission for each excitation wavelength was filtered at 510 nm and digitized using interface (EPC9, HEKA, Germany). […] Chromaffin cells isolated from HF or sham-operated rats were exposed to 10 μM UK14304 or vehicle for 30 min in culture medium containing a fixed Ca^2+ concentration of 2.5 mM, and then 150 mM KCl was added to induce depolarization. Only round-shaped, healthy, and attached chromaffin cells with a resting 340/380 ratio lower than 1 were selected for measurement.
# [6] = tested on: CSQ/Tg mouse-derived chromaffin cells; assay: In vitro catecholamine secretion from chromaffin cells of CSQ/Tg and NLC mice (nicotine stimulus, UK14304 pre-treatment); type: cell-based; conditions: for Inhibition of Epi and NE secretion in response to nicotine: 10 μM UK14304 pre-treatment; for EC50: Mus musculus, n=6
# From the text: (§2) Experimental Procedures: Adrenal chromaffin cell isolation and culture: The animal models of heart failure: mice with myocardial-targeted overexpression of calsequestrin (CSQ/Tg mice); male Sprague-Dawley rats (450-500 g; Harlan) ten weeks post-cryo-myocardial infarction (cryo-MI) (HF rats); as well as CSQ/βARKct mice, were previously established and characterized. Harding et al., 98 P.N.A.S. USA, 5809-14 (2001); Most et al., 114 J. Clin. Invest. 1550-63 (2004). Nontransgenic littermate mice were used as healthy controls for the mouse heart failure model. Chromaffin cells were isolated from adrenal glands excised from these animals and cultured as described previously in Brede et al., 2003. […] Cells from separate isolations were used in each experiment.
# as §1
# HF rat chromaffin cells = assay: In vitro catecholamine secretion from chromaffin cells of HF and sham rats (nicotine stimulus, UK14304 pre-treatment); type: cell-based; conditions: for EC50: Rattus norvegicus
# From the text: as §2, §1
compound,measurement,setting,value
COc1nc(C)nc(Cl)c1N=C1NCCN1 [moxonidine],Circulating Epi levels,α2AR [1]; adrenal AdGFP-treated HF rats,virtually no effect
same,Circulating NEpi levels,α2AR [1]; adrenal AdGFP-treated HF rats,lowered
same,NE and Epi plasma levels,α2AR [1]; adrenal AdβARKct-treated HF rats,further significantly reduced
same,Reason for early termination of the trials,α2AR [2],excessive adverse effects and fatalities
same,SNS activity in heart failure patients,α2AR [2],significant reduction of SNS activity
CN1CCCC1c1cccnc1 (stereo not shown) [nicotine],Nicotine-stimulated Epi and NE secretion,"chromaffin cells; chromaffin cells from AdGFP-, AdGRK2- and AdβARKct-treated rats, 20 μM nicotine",to an equal extent
Clc1cccc(Cl)c1N=C1NCCN1 [clonidine],Sympatholytic response to clonidine administration,α2AR [3],diminished sympatholytic responses
Brc1c(NC2=NCCN2)ccc2nccnc12 [UK14304],βarr1 recruitment to chromaffin cell membranes in response to α2AR stimulation,[4],large βarr1 recruitment
same,Ability of UK14304 to inhibit CA secretion,"chromaffin cells; cells from AdβARKct-treated rats, 10 μM UK14304",normal and similar to control cells
same,Effect of UK14304 on CA secretion in response to nicotine,"chromaffin cells; chromaffin cells from AdGRK2-treated rats, 10 μM UK14304",lost
same,Effect of UK14304 on CA secretion in response to nicotine,"chromaffin cells; chromaffin cells from control AdGFP-treated rats, 10 μM UK14304",abolishes CA secretion
same,Depolarization-induced Ca2+ entry,[5]; HF chromaffin cells,fails to significantly alter
same,Depolarization-induced Ca2+ entry,[5]; control (sham) cells,significantly inhibited
same,Inhibition of Epi and NE secretion in response to nicotine,[6]; CSQ/Tg mouse-derived chromaffin cells,completely fails to inhibit
same,EC50,"[6]; CSQ/Tg mouse-derived chromaffin cells, AdGFP cells, mean±s.e.m., read-out: EC50 of UK14304-mediated inhibition of Epi secretion",5500 ± 1300 nM
same,EC50,"[6]; CSQ/Tg mouse-derived chromaffin cells, AdGFP cells, read-out: EC50 of UK14304-mediated inhibition of NEpi secretion",8000 ± 2630 nM
same,EC50,"[6]; CSQ/Tg mouse-derived chromaffin cells, AdβARKct cells, read-out: EC50 of UK14304-mediated inhibition of Epi secretion",200 ± 1.5 nM
same,EC50,"[6]; CSQ/Tg mouse-derived chromaffin cells, AdβARKct cells, read-out: EC50 of UK14304-mediated inhibition of NEpi secretion",50 ± 1.4 nM
same,Inhibition of Epi and NE secretion in response to nicotine,[6]; control (NLC) cells,attenuates catecholamine release
same,"Catecholamine secretion, UK14304 pre-treatment alone",[6]; without nicotine,no effect
same,Inhibition of secretion of both catecholamines in response to nicotine,HF rat chromaffin cells; 10 μM UK14304 pre-treatment,fails to inhibit secretion
same,EC50,"HF rat chromaffin cells; AdGFP cells, n=6, read-out: EC50 of UK14304-mediated inhibition of Epi secretion",6400 ± 2500 nM
same,EC50,"HF rat chromaffin cells; AdGFP cells, n=6, read-out: EC50 of UK14304-mediated inhibition of NEpi secretion",680 ± 25.1 nM
same,EC50,"HF rat chromaffin cells; AdβARKct cells, n=6, read-out: EC50 of UK14304-mediated inhibition of Epi secretion",100 ± 5.2 nM
same,EC50,"HF rat chromaffin cells; AdβARKct cells, n=6, read-out: EC50 of UK14304-mediated inhibition of NEpi secretion",110 ± 1.2 nM
